Experimental data as given in PubChem BioAssay AID192 (DTP/NCI, 2004).
“And” between values parts separate entries of the source, which are not always exact repeats. Equal values may be shown once. Toxic doses and inconclusive results are not listed.

Test system: BDF1 mice, B16 melanoma ip, median survival T/C
Experiment: NCI In Vivo Anticancer Drug Screen. Data for tumor model B16 Melanoma (intraperitoneal) in B6D2F1 (BDF1) mice
Settings: endpoint: median survival time, higher = longer survival
Summary of the method: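 Read-out: survival or tumor size, given as treated/control ratio. Controls received vehicle only; animals bore transplantable tumors.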

[1] = dose: 100.0 mg/kg/injection, schedule: Q01DX009 (ip), vehicle: Klucel (hydroxypropylcellulose) (HPC)
[2] = dose: 200.0 mg/kg/injection, schedule: Q01DX009 (ip), vehicle: Klucel (hydroxypropylcellulose) (HPC)
[3] = dose: 100.0 mg/kg/injection, schedule: Q04DX003 (ip), vehicle: Klucel (hydroxypropylcellulose) (HPC)
[4] = dose: 200.0 mg/kg/injection, schedule: Q04DX003 (ip), vehicle: Klucel (hydroxypropylcellulose) (HPC)
[5] = dose: 100.0 mg/kg/injection, schedule: Q01DX009 (ip), vehicle: saline with Tween-80
[6] = dose: 200.0 mg/kg/injection, schedule: Q01DX009 (ip), vehicle: saline with Tween-80
[7] = dose: 400.0 mg/kg/injection, schedule: Q01DX009 (ip), vehicle: saline with Tween-80
[8] = dose: 400.0 mg/kg/injection, schedule: Q01DX009 (ip), vehicle: Klucel (hydroxypropylcellulose) (HPC)
[9] = dose: 25.0 mg/kg/injection, schedule: Q01DX009 (ip), vehicle: saline
[10] = dose: 50.0 mg/kg/injection, schedule: Q01DX009 (ip), vehicle: saline
[11] = dose: 100.0 mg/kg/injection, schedule: Q01DX009 (ip), vehicle: saline
[12] = dose: 200.0 mg/kg/injection, schedule: Q01DX009 (ip), vehicle: saline
[13] = dose: 400.0 mg/kg/injection, schedule: Q01DX009 (ip), vehicle: saline
[14] = dose: 400.0 mg/kg/injection, schedule: Q04DX003 (ip), vehicle: Klucel (hydroxypropylcellulose) (HPC)
[15] = dose: 100.0 mg/kg/injection, schedule: Q04DX003 (ip), vehicle: saline with Tween-80
[16] = dose: 6.25 mg/kg/injection, schedule: Q01DX009 (ip), vehicle: Klucel (hydroxypropylcellulose) (HPC)
[17] = dose: 12.5 mg/kg/injection, schedule: Q01DX009 (ip), vehicle: Klucel (hydroxypropylcellulose) (HPC)
[18] = dose: 25.0 mg/kg/injection, schedule: Q01DX009 (ip), vehicle: Klucel (hydroxypropylcellulose) (HPC)
[19] = dose: 25.0 mg/kg/injection, schedule: Q01DX009 (ip), vehicle: saline with Tween-80
[20] = dose: 50.0 mg/kg/injection, schedule: Q01DX009 (ip), vehicle: saline with Tween-80

## Cc1ccc([I+]c2ccc(C)cc2C)c(C)c1
dose: 0.18 mg/kg/injection, schedule: Q01DX009 (ip), vehicle: Klucel (hydroxypropylcellulose) (HPC)
  T/C: 114 % of control
dose: 0.37 mg/kg/injection, schedule: Q01DX009 (ip), vehicle: Klucel (hydroxypropylcellulose) (HPC)
  T/C: 92 % of control
dose: 0.75 mg/kg/injection, schedule: Q01DX009 (ip), vehicle: Klucel (hydroxypropylcellulose) (HPC)
  T/C: 87 % of control
dose: 6.0 mg/kg/injection, schedule: Q01DX009 (ip), vehicle: Klucel (hydroxypropylcellulose) (HPC)
  T/C: 90 % of control

## C=C(C)[C@H]1Cc2c(ccc3c2O[C@@H]2COc4cc(OC)c(OC)cc4[C@@H]2C3=O)O1
dose: 4.0 mg/kg/injection, schedule: Q01DX009 (ip), vehicle: saline with Tween-80
  T/C: 92 % of control and 99 % of control
dose: 8.0 mg/kg/injection, schedule: Q01DX009 (ip), vehicle: saline with Tween-80
  T/C: 105 % of control
dose: 16.0 mg/kg/injection, schedule: Q01DX009 (ip), vehicle: saline with Tween-80
  T/C: 98 % of control

## CCC(=O)c1ccccc1N
[1]
  T/C: 97 % of control
[2]
  T/C: 98 % of control

## Nc1nc(-c2ccccc2N=NN2CCCCC2)nc2ccccc12
dose: 50.0 mg/kg/injection, schedule: Q04DX003 (ip), vehicle: Klucel (hydroxypropylcellulose) (HPC)
  T/C: 97 % of control
[3]
  T/C: 91 % of control
[4]
  T/C: 113 % of control

## NC(=O)NC1CCCCCC1
[5]
  T/C: 108 % of control
[6]
  T/C: 104 % of control
[7]
  T/C: 95 % of control

## COc1cccc(CNc2ccc(C)cc2C)c1OC
[1]
  T/C: 96 % of control
[2]
  T/C: 103 % of control
[8]
  T/C: 96 % of control

## O=C(/C(=C\c1ccccc1)CBr)c1ccccc1
dose: 0.12 mg/kg/injection, schedule: Q01DX009 (ip), vehicle: Klucel (hydroxypropylcellulose) (HPC)
  T/C: 101 % of control
dose: 0.25 mg/kg/injection, schedule: Q01DX009 (ip), vehicle: Klucel (hydroxypropylcellulose) (HPC)
  T/C: 88 % of control
dose: 0.5 mg/kg/injection, schedule: Q01DX009 (ip), vehicle: Klucel (hydroxypropylcellulose) (HPC)
  T/C: 88 % of control

## CC(N)C(=O)NC(C(=O)O)C(C)O (stereo unspecified)
[9]
  T/C: 92 % of control
[10]
  T/C: 100 % of control
[11]
  T/C: 97 % of control
[12]
  T/C: 102 % of control
[13]
  T/C: 105 % of control

## O=[N+]([O-])c1ccc(/C=C/c2ccccc2)c([N+](=O)[O-])c1
[3]
  T/C: 97 % of control
[4]
  T/C: 96 % of control
[14]
  T/C: 97 % of control

## CC(=O)C1CCC2C3CCC4=CC(=O)CC4(C)C3CCC12C (stereo unspecified)
[15]
  T/C: 94 % of control
dose: 200.0 mg/kg/injection, schedule: Q04DX003 (ip), vehicle: saline with Tween-80
  T/C: 105 % of control

## C=C1C(=O)OC2/C=C(\C)CC/C=C(/C=O)C(OC)C(OC(=O)C(C)C)C12 (stereo unspecified)
[16]
  T/C: 113 % of control
[17]
  T/C: 111 % of control
[18]
  T/C: 104 % of control

## CC1(C)CC(C)(c2ccc(O)cc2)c2ccccc2O1 (stereo unspecified)
[5]
  T/C: 100 % of control
[6]
  T/C: 86 % of control
[7]
  T/C: 86 % of control

## CCN(CC)S(=O)(=O)c1ccc(OC)c(N)c1
[19]
  T/C: 107 % of control
[20]
  T/C: 100 % of control
dose: 50.0 mg/kg/injection, schedule: Q04DX003 (ip), vehicle: saline with Tween-80
  T/C: 104 % of control
[5]
  T/C: 105 % of control
[15]
  T/C: 104 % of control

## CC(C)[C@]12O[C@H]1[C@@H]1O[C@]13[C@]1(O[C@H]1C[C@H]1C4=C(C(=O)OC4)[C@@H](O)C[C@@]13C)[C@@H]2O
dose: 12.5 micrograms/kg/injection, schedule: Q01DX009 (ip), vehicle: saline + alcohol
  T/C: 112 % of control
dose: 25.0 micrograms/kg/injection, schedule: Q01DX009 (ip), vehicle: saline + alcohol
  T/C: 110 % of control
dose: 50.0 micrograms/kg/injection, schedule: Q01DX009 (ip), vehicle: saline + alcohol
  T/C: 110 % of control
dose: 63.0 micrograms/kg/injection, schedule: Q01DX009 (ip), vehicle: saline + alcohol
  T/C: 102 % of control
dose: 100.0 micrograms/kg/injection, schedule: Q01DX009 (ip), vehicle: saline + alcohol
  T/C: 122 % of control
dose: 125.0 micrograms/kg/injection, schedule: Q01DX009 (ip), vehicle: saline + alcohol
  T/C: 111 % of control
dose: 250.0 micrograms/kg/injection, schedule: Q01DX009 (ip), vehicle: saline + alcohol
  T/C: 107 % of control

## O=NN(CCF)C(=O)NCCO
dose: 1.88 mg/kg/injection, schedule: Q01DX001 (ip), vehicle: saline
  T/C: 115 % of control
dose: 3.75 mg/kg/injection, schedule: Q01DX001 (ip), vehicle: saline
  T/C: 114 % of control
dose: 15.0 mg/kg/injection, schedule: Q01DX001 (ip), vehicle: saline
  T/C: 172 % of control
dose: 30.0 mg/kg/injection, schedule: Q01DX001 (ip), vehicle: saline
  T/C: 231 % of control
dose: 60.0 mg/kg/injection, schedule: Q01DX001 (ip), vehicle: saline
  T/C: 212 % of control

## N=C(N)c1nn(C2OC(CO)C(O)C2O)c2ncnc(N)c12 (stereo unspecified)
dose: 0.78 mg/kg/injection, schedule: Q01DX009 (ip), vehicle: Klucel (hydroxypropylcellulose) (HPC)
  T/C: 97 % of control
dose: 1.56 mg/kg/injection, schedule: Q01DX009 (ip), vehicle: Klucel (hydroxypropylcellulose) (HPC)
  T/C: 98 % of control
dose: 3.12 mg/kg/injection, schedule: Q01DX009 (ip), vehicle: Klucel (hydroxypropylcellulose) (HPC)
  T/C: 93 % of control and 99 % of control
[16]
  T/C: 102 % of control
[17]
  T/C: 90 % of control
[18]
  T/C: 101 % of control

## CCC1CCCCN1C(=S)N/N=C(\C)c1ccccn1 (stereo unspecified)
dose: 6.25 mg/kg/injection, schedule: Q01DX009 (ip), vehicle: saline with Tween-80
  T/C: 96 % of control
dose: 12.5 mg/kg/injection, schedule: Q01DX009 (ip), vehicle: saline with Tween-80
  T/C: 95 % of control

## CCC/C(=C\C(=O)O)CC
[1]
  T/C: 108 % of control
[3]
  T/C: 95 % of control
[2]
  T/C: 100 % of control
[4]
  T/C: 95 % of control
[8]
  T/C: 97 % of control

## Nc1cccc(=O)[nH]1
dose: 12.5 mg/kg/injection, schedule: Q01DX009 (ip), vehicle: saline
  T/C: 90 % of control
[9]
  T/C: 98 % of control
[10]
  T/C: 98 % of control
[11]
  T/C: 98 % of control
[12]
  T/C: 90 % of control
[13]
  T/C: 92 % of control

## Cc1cc([N+](=O)[O-])c(Cl)cc1NS(=O)(=O)c1ccccc1
[19]
  T/C: 95 % of control
[20]
  T/C: 93 % of control
[5]
  T/C: 90 % of control

## Cc1ccccc1NC(=O)Nc1ccccc1F
[3]
  T/C: 93 % of control
[4]
  T/C: 93 % of control
[14]
  T/C: 100 % of control

## O=C(O)CSC(CC(=O)O)C(=O)O (stereo unspecified)
[12]
  T/C: 106 % of control
[13]
  T/C: 106 % of control

## CCCCCCCCCCCCCCCCCC[n+]1cccc(C(=O)N2CCOCC2)c1
dose: 2.0 mg/kg/injection, schedule: Q01DX009 (ip), vehicle: saline sonified
  T/C: 92 % of control
dose: 4.0 mg/kg/injection, schedule: Q01DX009 (ip), vehicle: saline sonified
  T/C: 100 % of control
dose: 8.0 mg/kg/injection, schedule: Q01DX009 (ip), vehicle: saline sonified
  T/C: 92 % of control
dose: 16.0 mg/kg/injection, schedule: Q01DX009 (ip), vehicle: saline sonified
  T/C: 92 % of control

## CC(C)C[C@H](NC(=O)[C@@H](O)[C@H](N)Cc1ccc(O)cc1)C(=O)O
dose: 0.05 mg/kg/injection, schedule: Q01DX009 (oral), vehicle: saline
  T/C: 97 % of control
dose: 0.5 mg/kg/injection, schedule: Q01DX009 (oral), vehicle: saline
  T/C: 97 % of control
dose: 5.0 mg/kg/injection, schedule: Q01DX009 (oral), vehicle: saline
  T/C: 101 % of control

## c1ccc(-c2nc3ccc4ccccc4c3nc2-c2ccccc2)cc1
[5]
  T/C: 100 % of control
[6]
  T/C: 118 % of control
[7]
  T/C: 95 % of control
